{"source": "patent US8927547B2", "about": "“Pyrimidine derivatives” (Noviga Research AB, priority 2010, dated 2015)", "system": "CCRF-CEM cancer cells - leukaemia", "experiment": "Fluorometric Microculture Cytotoxicity Assay (FMCA), CCRF-CEM", "type": "cell-based", "settings": "Homo sapiens, 72 h incubation", "source_text": "The Fluorometric Microculture Cytotoxicity Assay, FMCA, is a three day non-clonogenic microplate-based cell viability assay used for measurement of the cytotoxic and/or cytostatic effect of compounds in vitro (Lindhagen, E., et al. Nat Protoc, 2008. 3(8): p. 1364-9). FMCA (Larsson, R. and P. Nygren, Anticancer Res, 1989. 9(4): p. 1111-9) represents a valuable method to measure cytotoxicity in a number of cell types, both cell lines and primary cells from patients (Larsson, R., et al., Int J Cancer, 1992. 50(2): p. 177-85; Fridborg, H., et al., Eur J Cancer, 1999. 35(3): p. 424-32; Dhar, S., et al., Br J Cancer, 1996. 74(6): p. 888-96).\nFMCA is based on the principle that fluorescein diacetate (FDA) is converted to the fluorescent probe fluorescein by esterases in the plasma membranes of living cells. For experiments, 96 or 384-well microplates are prepared with compounds and stored at −70° C. until use. Cells are then seeded into the drug-prepared plates and placed in an incubator for 72 h. On the last day of incubation, the plates are washed and a buffer containing FDA is added and incubated with the cells for 45 minutes. Finally the fluorescence per well is measured in a fluorometer and a Survival Index % (SI) for each compound-treated well is calculated with the equation: Compound-treated cells minus blank divided by control cells minus blank. A high SI-value indicates a large percentage of living cells and vice versa.\nIn subsequent experiments, compounds were tested, along with kinase inhibitors (dasatinib, pazopanib, sorafenib, and sunitinib) as described above. Initially, the acute lymphoblastic leukaemia cell line CCRF-CEM (see e.g. Foley G E, et al. Cancer 1965, 18, 522-529) was used throughout. In the assay plates, medium was added to six empty wells (blank wells) and wells were filled with PBS and cell suspension and served as control wells. SI-values were then calculated for each compound-treated well as described above. All experiments were conducted twice and a new batch of plates was prepared for each experiment.\nFor dose-response experiments, 384-well plates were prepared as follows:\nCompounds of the invention as well as kinase inhibitors sorafenib, sunitinib, dasatinib, and pazopanib (reference compounds) were diluted with PBS to a concentration which was ten-times higher than the desired starting concentration. Then, a Biomek 2000 liquid handling system was employed to serially dilute the compounds in a deep-well 384-well plate. From this plate, assay plates containing 5 μl compound per well were prepared with the Biomek 2000. Certain compounds precipitated when diluted with PBS, and these compounds were therefore prepared in a 96-well plate manually as described above using culture medium RPMI 1640 instead of PBS.\nThe compounds were also tested at five concentrations, with five times serial dilution on the following cell types: CCRF-CEM, hTERT-RPE1 (normal retinal epithelial cells), hRPTEpiC (normal renal cells) and PBMC (peripheral blood mononuclear cells). Each experiment was performed three times, except for PBMC and hRPTEpiC, which were performed twice. SI-values were calculated, graphs were plotted using GraphPadPrism 5.0 (GraphPad Software Inc. La Jolla, Calif.) and EC50-values for each cell type and compound were determined from the curves.", "note": "pEC50: −log10 of the molar value."}
{"smiles": "Cc1cc2cc(CNc3ccnc(Nc4cccc5[nH]ccc45)n3)ccc2[nH]1", "note": "[Example 13, N^2-(1H-indol-4-yl)-N^4-(2-methyl-1H-indol-5-ylmethyl)pyrimidine-2,4-diamine]", "values": [{"measurement": "pEC50", "result": 6.26}]}
{"smiles": "c1cc(NCc2ccc3[nH]ccc3c2)nc(NCCc2c[nH]c3ccc(OCCN4CCOCC4)cc23)n1", "note": "[Example 73, N^4-(1H-indol-5-ylmethyl)-N^2-{2-[5-(2-morpholinoethoxy)-1H-indol-3-yl]ethyl}pyrimidine-2,4-diamine]", "values": [{"measurement": "pEC50", "result": "> 5.00"}]}
{"smiles": "CCN(CC)CCNC(=O)c1c(C)[nH]c(/C=C2\\C(=O)Nc3ccc(F)cc32)c1C", "note": "[Ref. 2, sunitinib, reference compound]", "values": [{"measurement": "pEC50", "result": 4.85}]}
{"smiles": "Cc1cc(Nc2ccc3[nH]c(C)cc3c2)nc(NCc2ccc3[nH]ccc3c2)n1", "note": "[Example 83, N^2-(1H-indol-5-ylmethyl)-6-methyl-N^4-(2-methyl-1H-indol-5-yl)pyrimidine-2,4-diamine]", "values": [{"measurement": "pEC50", "result": "> 5.00"}]}
{"smiles": "Cn1ccc2c(Nc3nccc(NCc4ccc5[nH]ccc5c4)n3)cccc21", "note": "[Example 75, N^4-(1H-indol-5-ylmethyl)-N^2-(1-methyl-1H-indol-4-yl)pyrimidine-2,4-diamine]", "values": [{"measurement": "pEC50", "result": 6.21}]}
{"smiles": "Cc1cc2cc(Nc3ccnc(NCc4ccc5[nH]ncc5c4)n3)ccc2[nH]1", "note": "[Example 65, N^2-(1H-indazol-5-ylmethyl)-N^4-(2-methyl-1H-indol-5-yl)pyrimidine-2,4-diamine]", "values": [{"measurement": "pEC50", "result": 6.04}]}
{"smiles": "Cc1cc2cc(Nc3nccc(NCc4ccc5[nH]ccc5c4)n3)ccc2[nH]1", "note": "[Example 3, N^4-(1H-indol-5-ylmethyl)-N^2-(2-methyl-1H-indol-5-yl)pyrimidine-2,4-diamine]", "values": [{"measurement": "pEC50", "result": 5.37}]}
{"smiles": "c1ccc2c(CCNc3ccnc(NCc4ccc5[nH]ccc5c4)n3)c[nH]c2c1", "note": "[Example 25, N^4-[2-(1H-indol-3-yl)ethyl]-N^2-(1H-indol-5-ylmethyl)pyrimidine-2,4-diamine]", "values": [{"measurement": "pEC50", "result": 5.50}]}
{"smiles": "c1cc(NCc2ccc3[nH]ccc3c2)nc(Nc2ccc3[nH]ccc3c2)n1", "note": "[Example 2, N^4-(1H-indol-5-ylmethyl)-N^2-(1H-indol-5-yl)pyrimidine-2,4-diamine]", "values": [{"measurement": "pEC50", "result": 5.32}]}
{"smiles": "COc1ccc2[nH]cc(CCNc3nccc(NCc4ccc5[nH]cnc5c4)n3)c2c1", "note": "[Example 69, N^4-(1H-benzo[d]imidazol-5-ylmethyl)-N^2-[2-(5-methoxy-1H-indol-3-yl)ethyl]pyrimidine-2,4-diamine]", "values": [{"measurement": "pEC50", "result": "> 5.00"}]}
{"smiles": "Cc1ccc2[nH]cc(CCNc3ccnc(NCc4ccc5[nH]ccc5c4)n3)c2c1", "note": "[Example 27, N^2-(1H-indol-5-ylmethyl)-N^4-[2-(5-methyl-1H-indol-3-yl)ethyl]pyrimidine-2,4-diamine]", "values": [{"measurement": "pEC50", "result": 5.38}]}
{"smiles": "c1cc(Nc2ccnc(NCc3ccc4[nH]ccc4c3)n2)c2cc[nH]c2c1", "note": "[Example 23, N^2-(1H-indol-5-ylmethyl)-N^4-(1H-indol-4-yl)pyrimidine-2,4-diamine]", "values": [{"measurement": "pEC50", "result": 5.79}]}
{"smiles": "Nc1cnc(Nc2cccc3[nH]ccc23)nc1NCc1ccc2[nH]ccc2c1", "note": "[Example 38, N^4-(1H-indol-5-ylmethyl)-N^2-(1H-indol-4-yl)pyrimidine-2,4,5-triamine]", "values": [{"measurement": "pEC50", "result": 5.36}]}
{"smiles": "Cc1cc2cc(Nc3nc(NCc4ccc5[nH]ccc5c4)cc(C(F)(F)F)n3)ccc2[nH]1", "note": "[Example 33, N^4-(1H-indol-5-ylmethyl)-N^2-(2-methyl-1H-indol-5-yl)-6-trifluoromethylpyrimidine-2,4-diamine]", "values": [{"measurement": "pEC50", "result": 5.02}]}
{"smiles": "c1ccc(COc2ccc3[nH]cc(CCNc4nccc(NCc5ccc6[nH]ccc6c5)n4)c3c2)cc1", "note": "[Example 72, N^4-(1H-indol-5-ylmethyl)-N^2-{2-[5-(benzyloxy)-1H-indol-3-yl]ethyl}pyrimidine-2,4-diamine]", "values": [{"measurement": "pEC50", "result": "> 5.00"}]}
{"smiles": "Cc1ccc2[nH]cc(CCNc3nccc(NCc4ccc5[nH]ccc5c4)n3)c2c1", "note": "[Example 11, N^4-(1H-indol-5-ylmethyl)-N^2-[2-(5-methyl-1H-indol-3-yl)ethyl]pyrimidine-2,4-diamine]", "values": [{"measurement": "pEC50", "result": 5.54}]}
{"smiles": "COC(=O)c1cc(Nc2nccc(NCc3ccc4[nH]ccc4c3)n2)c2cc[nH]c2c1", "note": "[Example 81, Methyl 4-[4-(1H-indol-5-ylmethylamino)pyrimidin-2-ylamino]-1H-indole-6-carboxylate]", "values": [{"measurement": "pEC50", "result": "> 5.00"}]}
{"smiles": "c1cc(Nc2ccc3[nH]ccc3c2)nc(NCc2ccc3[nH]ccc3c2)n1", "note": "[Example 82, N^2-(1H-indol-5-ylmethyl)-N^4-(1H-indol-5-yl)pyrimidine-2,4-diamine]", "values": [{"measurement": "pEC50", "result": 6.31}]}
{"smiles": "Cc1cc2cc(Nc3ccnc(NCc4ccc5cc[nH]c5c4)n3)ccc2[nH]1", "note": "[Example 70, N^2-(1H-indol-6-ylmethyl)-N^4-(2-methyl-1H-indol-5-yl)pyrimidine-2,4-diamine]", "values": [{"measurement": "pEC50", "result": "> 5.00"}]}
{"smiles": "COCCOc1ccc2[nH]cc(CCNc3nccc(NCc4ccc5[nH]ccc5c4)n3)c2c1", "note": "[Example 74, N^4-(1H-indol-5-ylmethyl)-N^2-{2-[5-(2-methoxyethoxy)-1H-indol-3-yl]ethyl}pyrimidine-2,4-diamine]", "values": [{"measurement": "pEC50", "result": "> 5.00"}]}
{"smiles": "FC(F)(F)c1cc(NCc2ccc3[nH]ccc3c2)nc(NCCc2c[nH]c3ccccc23)n1", "note": "[Example 35, N^2-(2-(1H-indol-3-yl)ethyl)-N^4-(1H-indol-5-ylmethyl)-6-trifluoromethylpyrimidine-2,4-diamine]", "values": [{"measurement": "pEC50", "result": 5.00}]}
{"smiles": "COc1ccc2[nH]cc(CCNc3ccnc(NCc4ccc5[nH]ccc5c4)n3)c2c1", "note": "[Example 28, N^2-(1H-indol-5-ylmethyl)-N^4-[2-(5-methoxy-1H-indol-3-yl)ethyl]pyrimidine-2,4-diamine]", "values": [{"measurement": "pEC50", "result": 5.51}]}
{"smiles": "Cc1cc2cc(CNc3ccnc(NCCc4c[nH]c5ccccc45)n3)ccc2[nH]1", "note": "[Example 17, N^2-(2-(1H-indol-3-yl)-ethyl)-N^4-(2-methyl-1H-indol-5-ylmethyl)pyrimidine-2,4-diamine]", "values": [{"measurement": "pEC50", "result": 5.14}]}
{"smiles": "c1cc(Nc2ccc3[nH]cnc3c2)nc(NCc2ccc3[nH]ccc3c2)n1", "note": "[Example 95, N^2-(1H-indol-5-ylmethyl)-N^4-(1H-benzo[d]imidazol-5-yl)pyrimidine-2,4-diamine]", "values": [{"measurement": "pEC50", "result": 6.05}]}
{"smiles": "Nc1cnc(Nc2ccc3cc[nH]c3c2)nc1NCc1ccc2[nH]ccc2c1", "note": "[Example 40, N^4-(1H-indol-5-ylmethyl)-N^2-(1H-indol-6-yl)pyrimidine-2,4,5-triamine]", "values": [{"measurement": "pEC50", "result": 5.38}]}
{"smiles": "Oc1ccc2[nH]cc(CCNc3nccc(NCc4ccc5[nH]ccc5c4)n3)c2c1", "note": "[Example 10, 3-{2-[4-(1H-indol-5-ylmethylamino)-pyrimidin-2-ylamino]ethyl}-1H-indol-5-ol]", "values": [{"measurement": "pEC50", "result": 4.99}]}
{"smiles": "Nc1cnc(Nc2ccc3[nH]ccc3c2)nc1NCc1ccc2[nH]ccc2c1", "note": "[Example 39, N^4-(1H-indol-5-ylmethyl)-N^2-(1H-indol-5-yl)pyrimidine-2,4,5-triamine]", "values": [{"measurement": "pEC50", "result": 5.55}]}
{"smiles": "c1cc(Nc2ccnc(NCc3ccc4[nH]ncc4c3)n2)c2cc[nH]c2c1", "note": "[Example 29, N^2-(1H-indazol-5-ylmethyl)-N^4-(1H-indol-4-yl)pyrimidine-2,4-diamine]", "values": [{"measurement": "pEC50", "result": 5.56}]}
{"smiles": "COc1ccc2[nH]cc(CCNc3nccc(NCc4ccc5cc[nH]c5c4)n3)c2c1", "note": "[Example 71, N^4-(1H-indol-6-ylmethyl)-N^2-[2-(5-methoxy-1H-indol-3-yl)ethyl]pyrimidine-2,4-diamine]", "values": [{"measurement": "pEC50", "result": "> 5.00"}]}
{"smiles": "Cc1nc(Nc2ncc(C(=O)Nc3c(C)cccc3Cl)s2)cc(N2CCN(CCO)CC2)n1", "note": "[Ref. 3, dasatinib, reference compound]", "values": [{"measurement": "pEC50", "result": 5.01}]}
{"smiles": "Cc1cc(NCc2ccc3[nH]ccc3c2)nc(NCCc2c[nH]c3ccc(O)cc23)n1", "note": "[Example 32, 3-{2-[4-(1H-indol-5-ylmethylamino)-6-methyl-pyrimidin-2-ylamino]-ethyl}-1H-indol-5-ol]", "values": [{"measurement": "pEC50", "result": 5.11}]}
{"smiles": "COc1ccc2[nH]cc(CCNc3nc(Cc4ccccc4)cc(NCc4ccc5[nH]ccc5c4)n3)c2c1", "note": "[Example 85, N^4-(1H-indol-5-ylmethyl)-6-benzyl-N^2-[2-(5-methoxy-1H-indol-3-yl)ethyl]pyrimidine-2,4-diamine]", "values": [{"measurement": "pEC50", "result": "> 5.00"}]}
{"smiles": "Cc1nc2cc(Nc3ccnc(NCc4ccc5[nH]ccc5c4)n3)ccc2[nH]1", "note": "[Example 96, N^2-(1H-indol-5-ylmethyl)-N^4-(2-methyl-1H-benzo[d]imidazol-5-yl)pyrimidine-2,4-diamine]", "values": [{"measurement": "pEC50", "result": 6.17}]}
{"smiles": "c1cc(NCc2ccc3[nH]ccc3c2)nc(Nc2ccc3[nH]ncc3c2)n1", "note": "[Example 4, N^4-(1H-indol-5-ylmethyl)-N^2-(1H-indazol-5-yl)pyrimidine-2,4-diamine]", "values": [{"measurement": "pEC50", "result": 5.39}]}
